Test system: VgEcR and RXR
Test: murA induction of the E/GRE/Hsmin promoter: GFP+ cells by fluorescent microscopy and FACS, Western blot of GAL4-Oct-2Q(Q→A) and EGFP
Type: cell-based
Conditions: 72 h
Description: High titer virus were produced by calcium phosphate transfection of retroviral DNA constructs into the LinX amphotrophic retroviral packaging cell line (17) followed by incubation with dexamethasone/butyrate (1 μM/ml) of packagers at 32° C. for 3 days. Infections were carried out by harvesting supernatants from LinX packagers, filtered through a […] membrane (Millipore), followed by the addition of polybrene (8 μM) to supernatants, finally overlaying onto actively dividing host cells (70% confluent). Cells were gently spun at room temperature for 30 min, incubated at 32° C. for 6 h. […]
Western blot analysis and antibodies. […] Signal intensities were determined after background corrections by using Alpha-Imager 2000 Documentation and Analysis Software (Alpha Innotech, San Leandro, Calif.). The percentage reduction in band intensity for each concentration of murA was calculated relative to the uninduced samples and normalized against β-tubulin.
The ecdysone inducible system is comprised of three Moloney murine leukemia virus (MoMLV)-based retroviral vectors, the two vectors expressing nuclear receptors/transcription factors VgEcR and RXR, and a third construct, pEind-RNAi expressing a chimeric transactivator GAL4-Oct-2^Q(Q→A), and an internal ribosomal entry site (IRES) linked enhanced green fluorescence protein (EGFP) under an inducible promoter E/GRE/Hsmin (FIG. 1A). […]

CC(C)CC[C@@H](O)[C@](C)(O)[C@H]1CC[C@@]2(O)C3=CC(=O)[C@]4(O)C[C@@H](O)[C@@H](O)C[C@]4(C)[C@H]3[C@H](O)C[C@]12C [murA, muristerone A]
Levels of GAL4-Oct-2Q(Q→A) and EGFP protein (Western blot) (5 μM murA, versus untreated controls): increased levels
GFP+ cells following induction with murA (sorted stable cells, 0.5 μM murA (microscopy), 5 μM murA (FACS)): > 95%
